The nature of series [1]: Urinary excretion up to 96 h. In kind it is in vivo, human. From the text: British Jourmal of Cancer (1998) 77(1), 139-146 ? 1998 Cancer Research Campaign Broad phase 11 and pharmacokinetic study of methoxy-morpholino doxorubicin (FCE 23762-MMRDX) in non-small-cell lung cancer, renal cancer and other solid tumour patients M Bakker', JP Droz2, AR Hanauske3, J Verweij4, AT van Oosterom5, HJM Groen', MA Pacciarini6, L Domenigoni6, F van Weissenbruch', E Pianezzola6 and EGE de Vries' 'University Hospital Groningen, The Netherlands; 2Centre L6on Berard, Lyon, France; 3Med. […] Patients received a maximum of six cycles. […] Limitations of the clinical value of anthracyclines are their toxicity profile, especially irreversible, dose-related cardiotoxicity, and intrinsic or acquired tumour resis- tance. Various mechanisms play a role in tumour cell resistance to anthracyclines, including overexpression of drug efflux pumps such as P-glycoprotein, decreased levels of the target enzyme topoisomerase II, and an increase in cellular detoxifying capacity (Kaye and Merry, 1985; Deffie et al, 1989; De Jong et al, 1990; Ford and Hait, 1990; Meijer et al, 1990; Zaman et al, 1994). The morpholinyl anthracyclines have been developed in the course of research aimed at identifying new anthracyclines with at least partially novel modes of action in addition to activity against resis- tant tumours (Acton et al, 1984). […] Box 30.001, 9700 RB Groningen, The Netherlands (Figure 1).

In a further series the test system is solid tumour patients. Also noted: method as in Vasey et al, 1995. The settings on record: i.v. bolus every 3 weeks, phase I study; ref Vasey et al, 1995; cited from earlier work.

In the case of `COc1cccc2c1C(=O)c1c(O)c3c(c(O)c1C2=O)C[C@@](O)(C(=O)CO)C[C@@H]3O[C@H]1C[C@H](N2CCO[C@H](OC)C2)[C@H](O)[C@H](C)O1` [MMRDX, methoxymorpholino-doxorubicin], in series [1] (in vivo), the Renal clearance result is “about 1.8 l h-1”. For the same molecule, the “Urinary excretion of the unchanged drug, % of the administered dose” value in series [1] (urine collection up to 96 h, nine patients) is reported as 2%. Also, the Maximum-tolerated dose in the series on solid tumour patients is 1.5 mg m-2.

(Values after paper PMC2151269, “Broad phase II and pharmacokinetic study of methoxy-morpholino doxorubicin (FCE 23762-MMRDX) in non-small-cell lung cancer, renal cancer and other solid tumour patients” (British Journal of Cancer, 1998).)
